Laboratory results: patent US20230321043A1, “COMPOUNDS HAVING PSEUDOMONAS ANTI-BIOFILM PROPERTIES” (Københavns Universitet, priority 2020, published 2023)

How the values were obtained:
[1] = tested on: P. aeruginosa ΔbifAΔwspF mutant; assay: biofilm formation of bifA knockout, crystal violet; type: cell-based, Pseudomonas aeruginosa; conditions: 100 μM, 16 hours of growth, FIG. 6B left
Protocol: Biofilm quantification was done using a 96 well microtiter platform where 20 hour old cultures of the deletion mutant of P. aeruginosa PA01 (ΔwspF) and its isogenic bifA deletion mutant (ΔbifA-) were diluted […] into 100 μL ABTrace media aliquots (Pamp and Tolker-Nielsen, 2007) supplemented with 0.2% glucose, 0.5% casa amino acids, 1 μM FeCl3, 0.2% DMSO and either 100 μM or 0 μM of H6-335-P1. The resulting cultures were incubated at 37° C. and 160 RPM, and following 16 hours of growth the amounts of biofilm were quantified by the use of crystal violet staining.

[2] = tested on: total cellular c-di-GMP content of P. aeruginosa ΔwspF,Δpsl,Δpel; assay: HPLC coupled tandem-MS quantification of c-di-GMP extracts; type: cell-based, Pseudomonas aeruginosa; conditions: 100 μM, 8 hours of growth; pmol c-di-GMP per mg protein, FIG. 1
Protocol: Specifically, a 20 h old culture of P. aeruginosa ΔwspF,Δpsl,Δpel (Rybtke et al 2012) was diluted 100 fold into 25 mL aliquots of ABtrace media supplemented with 0.5% Cas amino acids, 0.2% glucose, 60 μg/mL of gentamicin, 1 μM FeCl3, 0.05% DMSO and either 100 μM H6-335-P1, 100 μM H6-335 or no compound as reference control. Acting as a positive control for low total cellular c-di-GMP content, a 20 hour old culture of strain P. aeruginosa ΔwspF,Δpsl,Δpel carrying plasmid pYhj::Gm (encoding a constitutively expressed YhjH phosphodiesterase) was also diluted 100 fold into 25 mL of ABtrace medium supplemented with 0.5% Cas amino acids, 0.2% glucose, 60 μg/mL of gentamicin, 1 μM FeCl3 and 0.05% DMSO. The 4 cultures were placed on a rotary shaker and following 8 hours of growth at 37° C. and 200 RPM culture samples for c-di-GMP extraction and protein quantification was collected from each of the 4 different cultures. C-di-GMP extracts were prepared and subsequently quantified by HPLC coupled tandem-MS analysis as previously described (Groizeleau et al., 2016), while protein quantification was carried out using the Pierce 660 nm Protein Assay (Thermo Scientific Cat. No 22660) according to the manufacturer's protocol. […]

[3] = tested on: Enterococcus facieum; assay: biofilm formation / dispersal, host range; type: cell-based; conditions: data not shown
[4] = tested on: Staphylococcus aureus; assay: biofilm formation / dispersal, host range; type: cell-based; conditions: data not shown
[5] = tested on: Pseudomonas flourescens; assay: biofilm formation, crystal violet, host range; type: cell-based; conditions: 100 μM, 8 hours, FIG. 11
Protocol: (§1) To determine the host range of H6-335-P1, the inventors conducted a Blast search for analogs of the P. aeruginosa BifA phosphodiesterase protein encoded by gene PA4367 (bifA).
(§2) Briefly, the experiment presented in FIG. 11 were carried out in 96 well microtiter plates as follows. 20 hours old cultures of either P. aeruginosa, P. putida or P. flourescens were diluted 1000 fold into 100 μL aliquots of ABtrace media supplemented with 0.5% Cas amino acids, 0.2% glucose, 1 μM FeCl3, 0.2% DMSO and either 100 μM H6-335-P1 or none H6-335-P1. The resulting microtiter plate were sealed with an air permeable lid and the cultures were incubated at 37° C. on rotary shaker at 160 RPM. Following 8 hours of growth the culture supernatants were discarded and the amount of biofilm present in each well were quantified by the use of crystal violet staining. Finally, the obtained values of crystal violet (biofilm material) were plotted as a function of strain and the presence of 100 μM H6-335-P1 or absence of H6-335-P1. In FIG. 11 means and standard deviations (bars) represents 4 biological replicates (n=4).

[6] = tested on: Pseudomonas putida; assay: biofilm formation, crystal violet, host range; type: cell-based; conditions: 100 μM, 8 hours, FIG. 11
Protocol: as §1, §2

[7] = tested on: P. aeruginosa biofilms; assay: time dependent antibiotic killing of peg biofilms after H6-335-P1 treatment; type: cell-based, Pseudomonas aeruginosa; conditions: 2 hours 100 μM H6-335-P1, then 30 μg/ml tobramycin or 0.5 μg/ml ciprofloxacin
[8] = tested on: PA01(wspF)::araC-PBAD-bifA+; assay: biofilm formation with arabinose inducible bifA expression; type: cell-based, Pseudomonas aeruginosa; conditions: 6 to 100 μM with 0.05% or 0.2% arabinose, 18 hours, FIG. 6C
Protocol: Using a 96 well microtiter platform, overnight cultures of the strains were diluted 200 fold into 100 uL ABTrace media aliquots (Pamp and Tolker-Nielsen, 2007) supplemented with 0.2% glucose, 0.5% casa amino acids, 1 μM FeCl3, 1% DMSO and varying concentrations of arabinose and H6-335-P1.
The resulting microtiter plates were sealed with air permeable lids and biofilm cultures were grown at 37° C. on a rotary shaker (280 RPM) for 18 hours, after which the culture supernatants were discarded and biofilm present in the wells were quantified by crystal violet staining (Groizeleau et al., 2016).
Finally, biofilm prevailing following treatment with varying concentrations of arabinose and H6-335-P1 were plotted. The amounts of supplemented arabinose (0% A, 0.05% A or 0.2% A) and H6-335-P1 (100 μM, 50 μM, 25 μM, 12 μM, 6 μM or 0 μM) are indicated below the X-axis of FIG. 6C. Numbers above the bars in FIG. 6 represents the crystal violet measurements.

[9] = tested on: wt P. aeruginosa biofilm; assay: biofilm inhibition, microtiter tray, crystal violet staining; type: cell-based, Pseudomonas aeruginosa; conditions: 8 hours
Protocol: Briefly, using a microtiter tray format, a 20 hour old culture of wt P. aeruginosa was diluted 1000 fold into 100 μL ABtrace media aliquots supplemented with 0.2% glucose, 0.5% Cas amino acids, 1 μM FeCl3, 0.2% DMSO and varying concentrations (100 μM, 50 μM, 25 μM, 12μM, 6 μM or 0 μM) of either H6-335-P1, H6-335, H6-335-SAR compound 26 or H6-335-SAR compound 25. The resulting microtiter trays were sealed with an air permeable lid, and biofilm cultures were grown on a rotary shaker at 37° C. and 160 RPM for 8 hours. After this, culture-supernatants were discarded and the remaining biomass was stained with crystal violet (Groizeleau et al., 2016). Finally, the amount of Crystal violet bound to the biofilm present in each well was plotted as a function of H6-335-P1, H6-335, H6-335-SAR compound 26 and H6-335-SAR compound 25 in the following concentrations: 100 μM, 50 μM, 25 μM, 12 μM, 6 μM or 0 μM (FIG. 4A). Means and standard deviations (bars) in FIG. 4A represents 4 biological replicates (n=4).

N=C1NN=C(N)/C1=N/Nc1ccccc1F [H6-335-P1, 4-[(2-fluorophenyl) hydrazinylidene]pyrazole-3,5-diamine]
response of biofilm formation of ΔbifAΔwspF mutant [1]: no longer responded to the presence of H6-335-P1 | reduction of total cellular c-di-GMP content [2]: 90% | biofilm formation of Enterococcus facieum [3]: failed to reduce biofilm formation | biofilm formation of Staphylococcus aureus [4]: failed to reduce biofilm formation | biofilm formation of Pseudomonas flourescens [5]: significantly less biofilm | biofilm formation of Pseudomonas putida [6]: significantly less biofilm | surviving cells of biofilms after antibiotic challenge [7]: substantial decrease of surviving cells | inhibition of biofilm formation in arabinose stimulated (bifA induced) cultures [8]: synergistic inhibitory effect on biofilm formation | reduction of biofilm formation ([9]; 100 μM, compared to untreated (DMSO control)): 98% | biofilm inhibition (dose-response, words) ([9]; 6 to 100 μM, FIG. 4A): distinct concentration dependent biofilm inhibition
